# Data: patent US9956233B2 (priority 2015, dated 2018)
# Assays:
# [1] = system: primary dopaminergic neurons; assay: MPP+ toxicity in primary mesencephalic neuronal cultures, TH+ neurite length; assay type: cell-based; conditions: 10 μM, 24 h
# Procedure: Primary […] neurons were treated with 10 μM MPP+ alone or co-treated with 100-300 nM mito-Met for 24 h. […] FIG. 7B depicts quantification of neurite length of TH+ neurons.
# Primary mesencephalic neuronal cultures were treated for 24 h with 10 μM MPP^+ alone or co-treated with 100 and 300 nM mito-Met, dopaminergic neurotoxicity was assessed by TH immunocytochemistry (FIG. 7A) and quantification of neurite length of TH^+ neurons (FIG. 7B). MPP^+ reduced the neurite length of TH-immunoreactive neurons to almost 45% of the vehicle-treated group, indicating significant dopaminergic neurotoxicity.
# [2] = system: complex I in the mitochondrial respiratory chain; conditions: cited from earlier work
# [3] = diabetic patients; cited from earlier work
# AMPK = AMPK activation, phosphorylation at T172; assay type: cell-based; conditions: N27 cells, 10-100 μM, 24 h
# Text: In this example we assessed whether mito-Met alters mitochondrial biogenesis in a dopaminergic cell model.
# Tfam = Tfam protein and mRNA expression; conditions: N27 cells, 10-100 μM, 24 h
Compound,"neurite length of TH-immunoreactive neurons, of the vehicle-treated group [1] [%]",effect on mitochondrial complex-1 activity ([2]; at approximately 0.1 mM),"inhibition of complex I in the mitochondrial respiratory chain ([2]; in vitro, millimolar concentrations)",tolerated daily doses [3],phosphorylation of AMPK Thr172 (AMPK),protein levels of Tfam (Tfam)
C[n+]1ccc(-c2ccccc2)cc1 [MPP^+],~45,,,,,
"CN(C)C(=N)N=C(N)N [metformin, Metformin]",,does not affect,inhibit,2-3 grams,significantly increased,upregulated
